According to PubChem BioAssay (NCI):
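Values below derive from 48-hour exposures of cells grown in 96-well plates, with endpoints linearly interpolated between the two concentrations bracketing the appropriate inhibition level. The concentration for 50% growth inhibition is given as GI50. The concentration for full growth arrest is given as TGI.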

Legend:
Assay in all cases: inhibition of tumour cell growth, NCI panel, 48 h
[1] = system: CCRF-CEM leukemia
[2] = system: MCF7 breast
[3] = system: KM12 colon
[4] = system: UACC-62 melanoma
[5] = system: DU-145 prostate
[6] = system: M14 melanoma
[7] = system: OVCAR-5 ovarian
[8] = system: UACC-257 melanoma
[9] = system: T-47D breast
[10] = system: HCT-15 colon
[11] = system: ACHN renal
[12] = system: HOP-62 NSCLC
[13] = system: OVCAR-3 ovarian
[14] = system: SK-MEL-5 melanoma
[15] = system: HS 578T breast
[16] = system: SK-OV-3 ovarian
[17] = system: HT29 colon
[18] = system: CAKI-1 renal
[19] = system: NCI-H522 lung
[20] = system: TK-10 renal
[21] = system: 786-0 renal
[22] = system: SK-MEL-28 melanoma
[23] = system: NCI/ADR-RES ovarian
[24] = system: COLO 205 colon
[25] = system: SN12C renal
[26] = system: UO-31 renal
[27] = system: SW-620 colon
[28] = system: RPMI-8226 leukemia
[29] = system: HCC-2998 colon
[30] = system: HCT-116 colon
[31] = system: A549 NSCLC
[32] = system: MDA-MB-435
[33] = system: IGROV1 ovarian
[34] = system: SF-268 CNS
[35] = system: SR leukemia
[36] = system: MDA-MB-231 breast
[37] = system: SNB-19 CNS
[38] = system: SF-295 CNS
[39] = system: RXF 393 renal
[40] = system: OVCAR-4 ovarian
[41] = system: EKVX NSCLC
[42] = system: BT-549 breast
[43] = system: SK-MEL-2 melanoma
[44] = system: NCI-H460 lung
[45] = system: K-562 leukemia
[46] = system: HOP-92 NSCLC
[47] = system: MALME-3M melanoma
[48] = system: MOLT-4 leukemia
[49] = system: U251 CNS
[50] = system: LOX IMVI melanoma
[51] = system: A498 renal
[52] = system: NCI-H23 lung
[53] = system: SF-539 CNS
[54] = system: OVCAR-8 ovarian
[55] = system: PC-3 prostate

CC(=O)Oc1cn(-c2ccc(Cl)cc2)nc1C1=NN(C(C)=O)C(c2ccc(F)cc2F)O1 (stereo not given)
GI50 [1]: 27.5 µM | TGI [1]: > 100 µM | GI50 [2]: 30 µM | TGI [2]: > 100 µM | GI50 [3]: 25.4 µM | TGI [3]: 84.2 µM | GI50 [4]: 28.8 µM | TGI [4]: 96.3 µM | GI50 [5]: 39.2 µM | TGI [5]: > 100 µM | GI50 [6]: 31.4 µM | TGI [6]: > 100 µM | GI50 [7]: 44.4 µM | TGI [7]: > 100 µM | GI50 [8]: 27.2 µM | TGI [8]: 81.6 µM | GI50 [9]: 67.3 µM | TGI [9]: > 100 µM | GI50 [10]: 32.2 µM | TGI [10]: > 100 µM | GI50 [11]: 44.3 µM | TGI [11]: > 100 µM | GI50 [12]: 36.2 µM | TGI [12]: > 100 µM | GI50 [13]: 19.7 µM | TGI [13]: 75.9 µM | GI50 [14]: 18.4 µM | TGI [14]: 38.4 µM | GI50 [15]: 31.8 µM | TGI [15]: 88.8 µM | GI50 [16]: 50.4 µM | TGI [16]: > 100 µM | GI50 [17]: 40.1 µM | TGI [17]: > 100 µM | GI50 [18]: 35.6 µM | TGI [18]: 79.8 µM | GI50 [19]: 45.6 µM | TGI [19]: > 100 µM | GI50 [20]: 21.1 µM | TGI [20]: 61.9 µM | GI50 [21]: 26.1 µM | TGI [21]: 70.3 µM | GI50 [22]: 50.2 µM | TGI [22]: > 100 µM | GI50 [23]: 42.9 µM | TGI [23]: > 100 µM | GI50 [24]: 42.7 µM | TGI [24]: > 100 µM | GI50 [25]: 33.6 µM | TGI [25]: > 100 µM | GI50 [26]: 31.8 µM | TGI [26]: > 100 µM | GI50 [27]: 41.4 µM | TGI [27]: > 100 µM | GI50 [28]: 20.5 µM | TGI [28]: 54.8 µM | GI50 [29]: 35.7 µM | TGI [29]: 55.3 µM | GI50 [30]: 33.4 µM | TGI [30]: > 100 µM | GI50 [31]: 33.2 µM | TGI [31]: > 100 µM | GI50 [32]: 27.9 µM | TGI [32]: 89.5 µM | GI50 [33]: 13.4 µM | TGI [33]: 76.2 µM | GI50 [34]: 29.6 µM | TGI [34]: > 100 µM | GI50 [35]: 35.8 µM | TGI [35]: 85.4 µM | GI50 [36]: 30.4 µM | TGI [36]: > 100 µM | GI50 [37]: 48.7 µM | TGI [37]: > 100 µM | GI50 [38]: 20.2 µM | TGI [38]: 51.3 µM | GI50 [39]: 23.9 µM | TGI [39]: > 100 µM | GI50 [40]: 74.3 µM | TGI [40]: > 100 µM | GI50 [41]: 28.5 µM | TGI [41]: 83 µM | GI50 [42]: 19.5 µM | TGI [42]: 54.7 µM | GI50 [43]: 74 µM | TGI [43]: > 100 µM | GI50 [44]: 34.4 µM | TGI [44]: > 100 µM | GI50 [45]: 30 µM | TGI [45]: > 100 µM | GI50 [46]: 20.6 µM | TGI [46]: 71.6 µM | GI50 [47]: 14.8 µM | TGI [47]: 63.5 µM | GI50 [48]: 18.5 µM | TGI [48]: 94 µM | GI50 [49]: 38.5 µM | TGI [49]: > 100 µM | GI50 [50]: 30.1 µM | TGI [50]: > 100 µM | GI50 [51]: 29.1 µM | TGI [51]: 66.4 µM | GI50 [52]: 41.6 µM | TGI [52]: > 100 µM | GI50 [53]: 29.8 µM | TGI [53]: > 100 µM | GI50 [54]: 34.6 µM | TGI [54]: > 100 µM | GI50 [55]: 27.9 µM | TGI [55]: > 100 µM
